Experimental data taken from patent publication US20220267271A1, “WNT ACTIVATORS AND METHODS OF USE” (MAYO FOUNDATION FOR MEDICAL EDUCATION AND RESEARCH, priority 2019, published 2022).

How the values were obtained:
Wnt/β-catenin signaling = assay: Luciferase reporter assay (Super8XTOPFlash) for Wnt/β-catenin signaling in HEK293 cells; assay type: cell-based; details: 24 h; for EC50: Homo sapiens, Wnt3A plasmid-transfected HEK293 cells, 30-30,000 nM, mean and SD of 3-7 independent experiments; for Wnt reporter activity / activation of Wnt/β-catenin signaling: HEK293 cells
Description: (A) structures of niciosamide and CI-994; (B) HEK293 cells were transfected with Super8XTOPFlash and β galactosidase vectors along with Wnt3A or control vector. After 24 hours incubation, cells were treated with CI-994 at the indicated concentration for 24 hr. The luciferase activity was then measured and normalized to the activity of the β-galactosidase. (C) HT1080 cells stably transduced LRP6 with HA tag were treated with niciosamide and CI-994 at the indicated concentrations for 24 h. The levels of HA-LRP6 were examined by Western blot with anti-HA antibody. (D) Western blots showing the depletion of LRP6 after 2 days of transiently transfection of 50 nM LRP6 siRNA in HEK293 cells. ON-TARGETplus double-stranded siRNA oligomers against human LRP6 and non-specific scrambled siRNA control (Stealth RNAi™ siRNA Negative Control, Med GC) were purchased from Thermo Scientific. siRNA LRP6-1, siRNA LRP6-2 and control siRNA were Thermo Scientific catalog numbers J-003845-09, J-003845-11 and 12935300, respectively. (E) HEK293 cells were transfected with LRP6 siRNAs, and after 8 h incubation were further transfected with Super8XTOPFlash construct and β galactosidase-expressing vector. After 24 h incubation, the cells were treated with CI-994 (16 μM) for 24 h. The luciferase activity was then measured and normalized to β-galactosidase activity. All the values are the average of triplicate determinations with the SD values indicated by error bars. **P<0.01 versus corresponding control value.
HEK293 cells were transfected with SuperXTOPFlash and β-galactosidase vectors along with Wnt3A or control vector. After 24 h incubation, cells were treated with 1015 or 1039 at the indicated concentrations for 24 h. The luciferase activity was then measured and normalized to the activity of the β-galactosidase. All the values are the average of triplicate determinations with the SD values indicated by error bars. This experiment is representative of at least three such experiments performed with similar data.
Luciferase reporter assay for Wnt/β-catenin signaling: HEK293 cells were plated into 24-well plates. After overnight culture, the cells were transiently transfected with the Super8XTOPFlash luciferase construct and β-galactosidase-expressing vector along with or without Wnt3A plasmid. After 24 h incubation, cells were treated with each individual compound at the indicated concentrations for 24 h. Cells were then lysed and both luciferase and β-galactosidase activities were determined. The luciferase activity was normalized to the β-galactosidase activity.
HEK293 cells were plated into 24-well plates. After overnight culture, the cells were transiently transfected with the Super8XTOPFlash luciferase construct and β-galactosidase-expressing vector along with the Wnt3A plasmid. After 24 h incubation, the cells were treated with each individual compound at 30-30,000 nM in triplication for 24 h. The cells were then lysed, and luciferase and β-galactosidase activities were determined with the luciferase assay system (Promega, Cat. #E1501) and β-galactosidase assay system (Promega, Cat. #E2000), respectively. The luciferase activity was normalized to the s-galactosidase activity, and the EC50 values were calculated by use of GraphPad software, and shown in the below table. All the EC50 values (mean and SD) are from 3-7 independent experiments.

C2C12 cells = assay: Alkaline phosphatase (ALP) activity assay, osteoblastic differentiation of C2C12 cells; assay type: cell-based; details: 72 h; for potency in inducing C2C12 osteoblastic differentiation compared with CI-994: dose-response 0.1-12.8 μM
Description: C2C12 cells were seeded into 24-well plates (1×10^5 cells/well). After culture overnight, the cells were treated with a Wnt activator at 0.8 μM (A) and 1.6 μM (B) for 72 h. The ALP activity was measured by ALP assay kit from AnaSpec (AS-72146). All the values are the average of triple determinations with the s.d. indicated by error bars. *P<0.05, **P<0.01 versus corresponding control value. This experiment is a representation of two such experiments performed with similar data.
C2C12 cells were seeded into 24-well plates (1×10^5 cells/well). After culture overnight, the cells were treated with the noted compounds at 0, 0.1, 0.2, 0.4, 0.8, 1.6, 3.2, 6.4 and 12.8 μM for 72 hours. The ALP activity was measured by ALP assay kit from AnaSpec (AS-72146). All the values are the average of triple determinations with the s.d. indicated by error bars.
Alkaline phosphatase (ALP) activity assay: C2C12 cells in 24-well plates were treated with each individual compound at the indicated concentrations for 72 h. Cells were then harvested for assay of ALP activity with the ALP assay kit (AnaSpec) according to the manufacturers specifications.

HDAC = assay: Histone Deacetylase (HDAC) activity assay (fluorometric kit); assay type: biochemical; details: 2 μM
Description: HDAC enzymatic activities of compounds were measured by fluorometric HDAC Activity Assay kit (Abcam. #ab156064). Trichostatin A, a known HDAC inhibitor, was used as the positive control. All the values are the average of triple determination with the s.d. indicated by error bars. **P<0.01 versus the corresponding control value.
Histone Deacetylase (HDAC) activity assay: Histone Deacetylase (HDAC) activity assay kit (ab156064) was purchased from Abcam, and the effects of the tested compounds on HDAC activity were examined according to the manufacturers specifications.

BACE1 = BACE1 expression in N2a cells by Western blotting; assay type: cell-based; details: 24 h
Description: (A,C) N2a cells were treated with CI-994 at the indicated concentration for 24 h, and the levels of β-catenin (A) and BACE1 (C) were examined by Western blotting. (B,D) The band intensity of β-catenin and BACE1 was quantified and normalized to the corresponding signal for actin. The results represented in the histograms are shown as the mean±SD and are the average of three independent experiments. *P<0.05, **P<0.01 versus corresponding control value.
N2a cells were treated with 1015 and 1020 at the indicated concentrations for 24 h. (A) the levels of BACE1 expression were examined by Western blotting. (B) The intensity of BACE1 bands were quantified and normalized to the corresponding signal for actin. The results represented in the histograms are shown as the mean±SD and are the average of 3-4 independent experiments. *P<0.05, **P<0.01 versus corresponding control value.
Western blotting: Cells in 6-well plates were lysed in 0.5 ml of lysis buffer (phosphate-buffered saline containing 1% Triton X-100, 1× Proteinase inhibitor cocktail Complete, and 1 mM PMSF) at 4° C. for 15 min. Equal quantities of protein were subjected to SDS-PAGE under reducing conditions. Following transfer to immobilon-P transfer membrane, successive incubations with a primary antibody, and a horseradish peroxidase-conjugated secondary antibody or IRDye® 680RD goat anti-rabbit/mouse secondary antibodies were carried out for 60-120 min at room temperature. The immunoreactive proteins were then detected using the ECL system or the Odyssey infrared imaging system (LI-COR). Films showing immunoreactive bands were scanned by Hp Scanjet 5590.

Row | Compound | EC50 (Wnt/β-catenin signaling) [nM] | potency in inducing C2C12 osteoblastic differentiation compared with CI-994 (C2C12 cells) | inhibitory effects on HDAC activity (HDAC) | Wnt reporter activity / activation of Wnt/β-catenin signaling (Wnt/β-catenin signaling) | BACE1 expression (BACE1; 0.8 μM and 1.6 μM) | BACE1 expression (BACE1; CI-994 at the indicated concentration) | ALP activity (C2C12 cells; C2C12 cells, 0.8 μM and 1.6 μM)
1 | CC1CCCC(C)N1CCNC(=O)c1ccc(C(=O)Nc2ccccc2N)nc1 (centres unmarked) [Compound 1011] | 920 ± 455 | more potent than CI-994 | do not display any inhibitory effects | – | – | – | –
2 | Nc1ccccc1NC(=O)c1ccc(C(=O)NCC2CCN2C2CCCC2)cn1 (centres unmarked) [Compound 1015] | 623 ± 212 | more potent than CI-994 | do not display any inhibitory effects | activate | significantly inhibited | – | –
3 | Nc1ccccc1NC(=O)c1ccc(C(=O)NCCN2CCC3(CCCCC3)CC2)cc1 [Compound 1020] | 860 ± 278 | – | do not display any inhibitory effects | – | significantly inhibited | – | –
4 | CC(=O)Nc1ccc(C(=O)Nc2ccccc2N)cc1 [CI-994, 4-(acetylamino)-N-(2-aminophenyl)benzamide, reference compound] | – | – | – | increased | – | deceased | significantly enhanced
